Assay results taken from EP0472573B1, “HERBICIDE RESISTANT MAIZE” (ZENECA LIMITED, priority 1989, dated 1990).

Assays:
Format in all cases: biochemical, Zea mays
[1] = biological target: ALS extracted from leaves of MUTANT 2 (homozygous); test: ALS enzyme assay, homozygous Mutant 2; conditions: for IC50: ALS of homozygous Mutant 2, read-out: ID50% Mutant; for Fold Increase: fold increase in resistance vs wild type, homozygous Mutant 2, 30 min
Experimental: (§1) Four grams of leaf material were harvested from just above the first leaf axis and ground in a mortar and pestle in 20ml of a solution containing 40mM Tricine (Trade Mark), 10mM EDTA, 5mM pyruvate, 80 »M flavin adenine dinucleotide (FAD), 1mM dithiothreitol (DTT), pH 8, plus 0.8g Polyclar AT. The homogenate was pressed through four layers of muslin and centrifuged at 30,000g for 20 minutes.
(§2) The supernatant was brought to 65% saturation with ammonium sulphate, left to precipitate for 30 minutes and then centrifuged at 30.000g for 20 minutes. The pellet was resuspended in 2.5ml of 40mM Tricine, 10mM EDTA, 5mM pyruvate, 80»M FAD, 25% (v/v) glycerol, 1mM DTT, pH 8, and desalted into 3.5ml of 40mM Tricine, 10mM EDTA, 25% (v/v) glycerol, 1mM DTT, pH 8.
(§3) One hundred microlitres of the enzyme extract was used for each assay. Final reagent concentrations were: 120mM Tricine, 50mM pyruvate, 10mM MgCl₂, […], 93»M thiamine pyrophosphate (TPP), pH 8, in the presence or absence of a herbicide of interest, in a volume of 750 »l. Incubations were carried out at 37°C for 30 minutes. Reactions were stopped with 250»l of 1.84M sulphuric acid, and decarboxylation of the acetolactate carried out at 37°C for 75 minutes, or at 60°C for 30 minutes. Assay blanks had sulphuric acid added prior to the enzyme extract. To the samples and blanks 650»l of α-naphthol in 2.73M NaOH/0.16%(w/v) creatine were added followed by incubation at 37°C for 30 minutes. After centrifugation at 30,000g the optical density of the supernatant was read at 540nm.
(§4) The assay procedure described was carried out on ALS enzyme extracted from each of the nine mutants for the following herbicides: imazethapyr (PURSUIT) imazapyr (ARSENAL) imazaquin (SCEPTER) chlorsulfuron (GLEAN) chlorimuron (CLASSIC) […] (HARMONY) The enzyme activity graphs are given as Figures 3 to 8. In addition, homozygous lines of mutants 1 and 2 which were selected from generation M₁BC₁S₂, were also tested against the same group of herbicides and against representatives of the triazolopyrimidines and phenoxypyrimidines. The chemical structures of these herbicides are shown in Figure 2 of the accompanying drawings.
(§5) From the enzyme assay data it is possible to derive, as a measure of the degree of inhibition the factor ID50% for each mutant and for each herbicide. This factor is indicative of the herbicide concentration which gives 50% inhibition of the ALS activity in comparison with the wild-type control. It is also possible to derive the fold increase in resistance.

[2] = biological target: ALS enzyme extracted from Mutant 6 (heterozygous); test: ALS enzyme assay, heterozygous Mutant 6; conditions: for IC50: ALS of heterozygous Mutant 6, read-out: ID50% (the source's name); for resistance group, Enzyme Assay: Mutant 6, groups Strong, Intermediate, Weak, Zero; for Fold Increase: fold increase in resistance vs wild type, heterozygous Mutant 6, 30 min
Experimental: (§6) Seeds of generation M₁BC₁ M₁BC₂ of the nine mutants were sprayed pre-emergence with the herbicide imazethapyr (PURSUIT) (Trade Mark) at a rate of 250 g/ha and grown in a growth chamber (16 hour day, 27°C; 8 hour night, 17°C). Plants were harvested after 11 days.
as §1, §2, §3, §4, §5

[3] = biological target: ALS enzyme extracted from Mutant 2 (heterozygous); test: ALS enzyme assay, heterozygous Mutant 2; conditions: for IC50: ALS of heterozygous Mutant 2, read-out: ID50% (the source's name); for resistance group, Enzyme Assay: Mutant 2, groups Strong, Intermediate, Weak, Zero; for Fold Increase: fold increase in resistance vs wild type, heterozygous Mutant 2, 30 min
Experimental: as §6, §1, §2, §3, §4, §5

[4] = biological target: ALS enzyme extracted from Mutant 5 (heterozygous); test: ALS enzyme assay, heterozygous Mutant 5; conditions: for IC50: ALS of heterozygous Mutant 5, read-out: ID50% (the source's name); for resistance group, Enzyme Assay: Mutant 5, groups Strong, Intermediate, Weak, Zero; for Fold Increase: fold increase in resistance vs wild type, heterozygous Mutant 5, 30 min
Experimental: as §6, §1, §2, §3, §4, §5

[5] = biological target: ALS enzyme extracted from Mutant 8 (heterozygous); test: ALS enzyme assay, heterozygous Mutant 8; conditions: for IC50: ALS of heterozygous Mutant 8, read-out: ID50% (the source's name); for resistance group, Enzyme Assay: Mutant 8, groups Strong, Intermediate, Weak, Zero; for Fold Increase: fold increase in resistance vs wild type, heterozygous Mutant 8, 30 min
Experimental: as §6, §1, §2, §3, §4, §5

[6] = system: ALS enzyme extracted from Mutant 9 (heterozygous); test: ALS enzyme assay, heterozygous Mutant 9; conditions: for resistance group, Enzyme Assay: Mutant 9, groups Strong, Intermediate, Weak, Zero; for Fold Increase: fold increase in resistance vs wild type, heterozygous Mutant 9, 30 min; for IC50: ALS of heterozygous Mutant 9, read-out: ID50% (the source's name)
Experimental: as §6, §1, §2, §3, §4, §5

[7] = biological target: ALS enzyme extracted from Mutant 3 (heterozygous); test: ALS enzyme assay, heterozygous Mutant 3; conditions: for IC50: ALS of heterozygous Mutant 3, read-out: ID50% (the source's name); for resistance group, Enzyme Assay: Mutant 3, groups Strong, Intermediate, Weak, Zero; for Fold Increase: fold increase in resistance vs wild type, heterozygous Mutant 3, 30 min
Experimental: as §6, §1, §2, §3, §4, §5

[8] = biological target: ALS extracted from leaves of MUTANT 1 (homozygous); test: ALS enzyme assay, homozygous Mutant 1; conditions: for IC50: ALS of homozygous Mutant 1, read-out: ID50% Mutant; for Fold Increase: fold increase in resistance vs wild type, homozygous Mutant 1, 30 min
Experimental: as §1, §2, §3, §4, §5

[9] = biological target: ALS enzyme extracted from Mutant 10 (heterozygous); test: ALS enzyme assay, heterozygous Mutant 10; conditions: for IC50: ALS of heterozygous Mutant 10, read-out: ID50% (the source's name); for resistance group, Enzyme Assay: Mutant 10, groups Strong, Intermediate, Weak, Zero; for Fold Increase: fold increase in resistance vs wild type, heterozygous Mutant 10, 30 min
Experimental: as §6, §1, §2, §3, §4, §5

SMILES	IC50 [1]	Fold Increase [1]	IC50 [2]	resistance group, Enzyme Assay [2]	Fold Increase [2]	IC50 [3]	resistance group, Enzyme Assay [3]	Fold Increase [3]	IC50 [4]	resistance group, Enzyme Assay [4]	Fold Increase [4]	IC50 [5]	resistance group, Enzyme Assay [5]	Fold Increase [5]	resistance group, Enzyme Assay [6]	Fold Increase [6]	IC50 [7]	resistance group, Enzyme Assay [7]	Fold Increase [7]	IC50 [8]	other results
COc1cc(Cl)nc(NC(=O)NS(=O)(=O)c2ccccc2C(=O)O)n1 [Chlorimuron, chlorimuron]	0.02 µM	5.4	0.015 µM	Weak	4	0.01 µM	Weak	3	0.017 µM	Weak	5	0.01 µM	Zero	3	Weak	3	0.015 µM	Weak	4	0.01 µM	Fold Increase [8]: 2.7; IC50 [9]: 0.017 µM; resistance group, Enzyme Assay [9]: Intermediate; Fold Increase [9]: 5
COc1nc(C)nc(NC(=O)NS(=O)(=O)c2ccccc2Cl)n1 [Chlorsulfuron, chlorsulfuron]	0.04 µM	2.2	0.065 µM	Weak	4	0.065 µM	Weak	4	0.04 µM	Weak	2	0.075 µM	Weak	4	Weak	3	0.035 µM	Weak	2	0.06 µM	IC50 [6]: 0.05 µM; Fold Increase [8]: 3.2; IC50 [9]: 0.035 µM; resistance group, Enzyme Assay [9]: Weak; Fold Increase [9]: 2
CC(C)C1(C)N=C(c2nc3ccccc3cc2C(=O)O)NC1=O (stereo not drawn) [Imazaquin, imazaquin]	40 µM	66	1.5 µM	Weak	2	20 µM	Intermediate	33	25 µM	Intermediate	42	150 µM	Strong	250	Strong	83	1.5 µM	Weak	2	175 µM	IC50 [6]: 50 µM; Fold Increase [8]: 292; IC50 [9]: 7 µM; resistance group, Enzyme Assay [9]: Weak; Fold Increase [9]: 12
CCc1cnc(C2=NC(=O)C(C)(C(C)C)N2)c(C(=O)O)c1 (stereo not drawn) [Imazethapyr, 5-ethyl-2-(5-iso-propyl-5-methyl-4-oxo-2-imidazolin-2-yl) nicotinic acid]	400 µM	267	60 µM	Weak	40	230 µM	Intermediate	153	125 µM	Intermediate	83	> 1000 µM	Strong	>660	Strong	283	2.5 µM	Weak	2	750 µM	IC50 [6]: 425 µM; Fold Increase [8]: 500; IC50 [9]: 15 µM; resistance group, Enzyme Assay [9]: Intermediate; Fold Increase [9]: 10
